Assay [1] concerns the target T1, High affinity choline transporter 1 (Homo sapiens, UniProt Q9GZV3).
T1 sequence (Q9GZV3 whole entry): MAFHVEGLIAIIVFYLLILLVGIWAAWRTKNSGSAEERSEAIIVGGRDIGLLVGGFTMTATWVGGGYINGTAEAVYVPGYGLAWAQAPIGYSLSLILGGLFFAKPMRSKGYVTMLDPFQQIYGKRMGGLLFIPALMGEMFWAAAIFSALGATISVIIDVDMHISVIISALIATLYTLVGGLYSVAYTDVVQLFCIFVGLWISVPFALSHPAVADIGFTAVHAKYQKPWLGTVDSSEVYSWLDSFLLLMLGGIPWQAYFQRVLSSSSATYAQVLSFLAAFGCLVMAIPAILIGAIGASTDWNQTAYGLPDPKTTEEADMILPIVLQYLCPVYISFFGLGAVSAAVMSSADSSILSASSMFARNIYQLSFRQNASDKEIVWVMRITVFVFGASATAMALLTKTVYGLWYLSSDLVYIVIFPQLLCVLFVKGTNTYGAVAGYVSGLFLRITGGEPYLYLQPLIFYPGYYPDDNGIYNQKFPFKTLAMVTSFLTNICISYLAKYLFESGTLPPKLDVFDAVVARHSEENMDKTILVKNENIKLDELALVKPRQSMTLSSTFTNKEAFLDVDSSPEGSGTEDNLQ
Nature of the assay: human choline transporter blockers, potency – cell-based, 10-point CRC, membrane potential dye, dose response (AID 588401).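 Note: membrane potential dye fluorescence of choline-evoked depolarization via CHT.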 In kind it is functional.

Assay [2] has as its target T1, High affinity choline transporter 1. Nature of the assay: human choline transporter blockers, potency – cell-based, 5-point CRC, membrane potential dye, dose response (AID 504840). It counts as functional.

Calls of active or inactive are those of the source. The rule behind the calls is not given here.

For the molecule `CCc1cccc(C)c1NC(=O)c1ccc(CN2CCc3ccccc3C2)cc1`, the IC50 was 7.94 µM (active) in assay [1] and 3.88 µM (active) in assay [2].
